The values that follow come from ChEMBL document CHEMBL5620344, “Discovery of novel 5-(2-hydroxyphenyl)-2-phthalide-3(3H)-pyrazolones as balanced multifunctional agents against Alzheimer's disease” (Eur J Med Chem, 2023).

Series [1] concerns the target Amyloid-beta precursor protein (Homo sapiens) (UniProt P05067). Kind of series: Disaggregation of self-induced amyloid beta (1 to 42) (unknown origin) preformed fibrils at 25 uM by ThT fluorescence assay.
A short description of series [2]: Antioxidant activity assessed as trolox equivalent of ORAC radical scavenging activity by ORAC-FL assay relative to trolox. It counts as functional.
Series [3] has as its target T1, Amine oxidase [flavin-containing] B (Homo sapiens, UniProt P27338).
T1 sequence (P27338 whole entry): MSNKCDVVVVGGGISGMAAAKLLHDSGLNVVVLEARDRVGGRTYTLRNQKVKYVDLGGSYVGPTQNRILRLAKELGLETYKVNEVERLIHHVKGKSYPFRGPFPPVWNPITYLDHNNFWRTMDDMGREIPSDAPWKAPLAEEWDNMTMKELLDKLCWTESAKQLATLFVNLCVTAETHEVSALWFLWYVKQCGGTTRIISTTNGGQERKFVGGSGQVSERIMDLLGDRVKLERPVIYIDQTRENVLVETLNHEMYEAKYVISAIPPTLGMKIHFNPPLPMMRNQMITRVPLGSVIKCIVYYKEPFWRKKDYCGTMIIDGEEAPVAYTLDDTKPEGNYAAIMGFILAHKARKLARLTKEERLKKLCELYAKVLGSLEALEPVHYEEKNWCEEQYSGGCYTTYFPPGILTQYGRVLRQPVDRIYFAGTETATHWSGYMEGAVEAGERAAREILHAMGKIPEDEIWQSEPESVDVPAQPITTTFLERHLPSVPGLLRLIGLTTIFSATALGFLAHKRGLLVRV
As to the kind of experiment: Inhibition of human recombinant MAO-B.

Another series deals with T2, MAO-A (Homo sapiens, UniProt P21397).
T2 sequence (P21397 whole entry): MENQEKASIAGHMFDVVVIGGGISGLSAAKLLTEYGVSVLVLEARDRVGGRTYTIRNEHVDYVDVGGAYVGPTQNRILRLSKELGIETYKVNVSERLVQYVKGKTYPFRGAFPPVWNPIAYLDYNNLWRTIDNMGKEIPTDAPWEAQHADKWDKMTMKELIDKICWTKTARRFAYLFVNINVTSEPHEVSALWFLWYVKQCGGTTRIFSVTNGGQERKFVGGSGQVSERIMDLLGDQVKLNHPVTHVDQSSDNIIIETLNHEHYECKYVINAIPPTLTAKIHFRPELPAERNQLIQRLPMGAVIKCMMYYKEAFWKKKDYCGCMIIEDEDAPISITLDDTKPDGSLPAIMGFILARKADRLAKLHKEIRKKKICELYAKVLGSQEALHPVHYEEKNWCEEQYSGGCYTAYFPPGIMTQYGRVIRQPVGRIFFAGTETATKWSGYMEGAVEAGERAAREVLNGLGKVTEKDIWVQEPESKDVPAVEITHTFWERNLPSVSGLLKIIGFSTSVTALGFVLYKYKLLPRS
As to the kind of experiment: Inhibition of human recombinant MAO-A at 10 uM.

Series [4] addresses Amyloid-beta precursor protein (Homo sapiens) (UniProt P05067). As to the kind of experiment: Disaggregation of Cu2+-induced amyloid beta (1 to 42) (unknown origin) preformed fibrils at 25 uM by ThT fluorescence assay.
A short description of series [5]: Selectivity index, ratio of IC50 for human recombinant MAO-A to IC50 for human recombinant MAO-B.
In series [6] the target is T3, Amine oxidase [flavin-containing] A (Homo sapiens, UniProt P21397).
T3 sequence (P21397 whole entry): T2 sequence (P21397 whole entry)
Kind of series: Inhibition of human recombinant MAO-A.

The target in series [7] is Amyloid-beta precursor protein (Homo sapiens) (UniProt P05067). Kind of series: Inhibition of Cu2+-induced amyloid beta (1 to 42) (unknown origin) aggregation at 25 uM by ThT fluorescence assay.
For series [8] the target is unchanged. As to the kind of experiment: Inhibition of self-induced amyloid beta (1 to 42) (unknown origin) aggregation at 25 uM by ThT fluorescence assay.

Amyloid-beta precursor protein (Homo sapiens), sequence (P05067 whole entry): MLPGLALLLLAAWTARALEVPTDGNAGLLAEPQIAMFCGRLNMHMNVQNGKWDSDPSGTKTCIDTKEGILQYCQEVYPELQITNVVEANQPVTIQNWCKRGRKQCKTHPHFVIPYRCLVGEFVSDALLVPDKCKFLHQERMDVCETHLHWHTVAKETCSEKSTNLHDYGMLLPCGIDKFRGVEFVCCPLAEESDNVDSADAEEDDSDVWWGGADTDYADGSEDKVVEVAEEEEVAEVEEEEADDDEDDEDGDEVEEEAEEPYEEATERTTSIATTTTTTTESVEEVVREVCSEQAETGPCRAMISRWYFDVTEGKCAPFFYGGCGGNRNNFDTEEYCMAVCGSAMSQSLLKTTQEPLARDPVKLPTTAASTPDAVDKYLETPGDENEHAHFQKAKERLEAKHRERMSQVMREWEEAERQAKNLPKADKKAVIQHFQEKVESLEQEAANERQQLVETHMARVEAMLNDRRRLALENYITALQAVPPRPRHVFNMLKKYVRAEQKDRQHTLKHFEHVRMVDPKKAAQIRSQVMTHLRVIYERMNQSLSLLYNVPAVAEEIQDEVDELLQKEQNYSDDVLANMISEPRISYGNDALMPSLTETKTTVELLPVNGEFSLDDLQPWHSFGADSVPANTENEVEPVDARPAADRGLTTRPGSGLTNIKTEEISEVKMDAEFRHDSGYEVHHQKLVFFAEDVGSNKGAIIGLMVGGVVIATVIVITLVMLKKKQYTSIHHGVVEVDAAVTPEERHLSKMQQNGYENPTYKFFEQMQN

On to `CCCCC1OC(=O)c2cc(N3N=C(c4cccc(Br)c4O)CC3=O)ccc21` (stereo not drawn), for which the Activity was determined as 67.4% in series [1] and 62.8% in series [4]. Also, the Ratio in series [2] came out at 1.15 equiv. Moreover, the figures for the half-inhibitory concentration (IC50) in series [3] and in [6] were 10.5 µM and over 10 µM, respectively. Also, the inhibition at 10 µM on MAO-A was determined as 13%. Also, the Ratio IC50 in series [5] is over 1. The inhibition in series [7] amounted to 50.6%; in series [8], 75.5%.
As to `CCCCCCC1OC(=O)c2cc(N3N=C(c4ccccc4O)CC3=O)ccc21` (stereo not drawn), the Activity was found to be 59.5% in series [1] and 66.7% in [4]. In addition, the Ratio in series [2] is 1.33 equiv. Further, the IC50 was 3.79 µM in [3] and over 10 µM in [6]. Also, the inhibition at 10 µM at MAO-A amounted to 21.7%. For the same compound, the Ratio IC50 in [5] was over 2.6. In addition, the results for the inhibition in series [7] and in series [8] were 43.8% and 50.3%, respectively.
Regarding `CCCCC1OC(=O)c2cc(N3N=C(c4ccc(Cl)cc4O)CC3=O)ccc21` (stereo not drawn), the figures for the Activity in [1] and in series [4] were 56.5% and 65.6%, respectively. The Ratio in series [2] amounted to 1.29 equiv. Moreover, the values for the IC50 in [3] and in [6] were 8.05 µM and over 10 µM, respectively. In addition, the inhibition at 10 µM at MAO-A is 5.51%. Also, in series [5], the Ratio IC50 was over 1.2. The inhibition in [7] came to 66.2%; in series [8] it was 68%.
With `CCCCCCC1OC(=O)c2cc(N3N=C(c4cc(F)ccc4O)CC3=O)ccc21` (stereo not drawn), the Activity in [1] worked out at 43.7%; in series [4], 55%. Moreover, in [2], the Ratio came to 1.1 equiv. Moreover, the IC50 was 6.34 µM in series [3] and over 10 µM in [6]. For the same compound, the inhibition at 10 µM at MAO-A stood at 10.7%. In series [5], the Ratio IC50 is over 1.6. Further, the inhibition is 31.8% in [7] and 44.6% in series [8].
Turning to `CCCCC1OC(=O)c2cc(N3N=C(c4cc(Cl)ccc4O)CC3=O)ccc21` (stereo not drawn), the Activity in series [1] was found to be 49.9%; in series [4] it was 74.6%. Besides, in series [2], the Ratio came out at 1.32 equiv. Moreover, the half-maximal inhibitory concentration (IC50) in series [3] was 7.62 µM; in [6], over 10 µM. Further, the inhibition at 10 µM on MAO-A is 14.1%. In series [5], the Ratio IC50 is over 1.3. Further, the inhibition in [7] is 58.8%; in [8], 85.1%.
As to `CCCCCCC1OC(=O)c2cc(N3N=C(c4cc(Cl)ccc4O)CC3=O)ccc21` (stereo not drawn), the Activity is 76.3% in [1] and 73.8% in series [4]. Also, the Ratio in series [2] worked out at 1.18 equiv. Also, the figures for the IC50 in series [3] and in [6] were 8.32 µM and over 10 µM, respectively. Moreover, the inhibition at 10 µM on MAO-A amounted to 27.8%. Besides, in [5], the Ratio IC50 was over 1.2. Further, the inhibition in series [7] was 52.7%; in [8], 54.6%.
As to `CCCCC1OC(=O)c2cc(N3N=C(c4cc(Cl)cc(Br)c4O)CC3=O)ccc21` (stereo not drawn), the Activity in [1] was determined as 87.1%; in [4], 86.8%. For the same compound, in series [2], the Ratio is 1.1 equiv. Further, the 50% inhibitory concentration (IC50) in [3] was 6.5 µM; in [6] it was over 10 µM. Besides, at MAO-A, the inhibition at 10 µM was 8.09%. For the same compound, the Ratio IC50 in series [5] was over 1.5. In addition, the inhibition in series [7] is 85.1%; in series [8], 65.2%.

A word on the IC50: it is the concentration that gives 50% inhibition. Usually inhibition stands for the change of the read-out against control, counted positive when it falls.
